Assay results as given in US9492468B2, “Methods and compositions for treatment of acute heart failure” (PERICOR THERAPEUTICS, INC., priority 2008, dated 2016).

Columns and labels:
[1] = system: NT-ProBNP; test: Plasma NT-proBNP (competitive ELISA), dose escalation study; assay type: in vivo, dog
Description: (§1) Eight heart failure dogs described in Example 1 were used. Seven of 8 dogs underwent two studies, one with active drug GP-531 tartrate and one with vehicle (placebo) and 1 of 8 dogs underwent only one active drug GP-531 study. The order of active drug and placebo was randomized and performed about one week apart. In 6 of 8 dogs, after baseline hemodynamic, and ventriculographic measurements, vehicle was administered as a continuous intravenous infusion for one hour. At the end of one hour, the active drug GP-531 tartrate was administered in 3 escalating dose of continuous intravenous infusion with each dose maintained for one hour. At the end of the last drug dose, infusion was stopped and a washout period of one hour was instituted. The same infusion rates and times between doses were used when vehicle studies were performed. At the end of each hour, hemodynamic and angiographic measurements were made. Venous blood samples were obtained at baseline and at one hour after each dose. Blood samples (at least 10 mL) were centrifuged at 3000 rpm for 10 minutes and plasma withdrawn and placed in cryostorage tubes and stored upright at −20° C. for future use. In 2 of 8 dogs, active drug was administered as bolus followed by a constant infusion for 3 hours as noted below.
Plasma biomarkers were measured in Groups I and II. Troponin I (TnI) was determined in plasma based on the principle of the double antibody sandwich enzyme-linked immunosorbent assay (ELISA) (Hirano, T., et al., Immunol Today 1990, 11:443-449) and n-terminal brain natriuretic peptide (NT-pro-BNP) based on competitive ELISA (Bonow, R. O. Circulation 1996, 93:1946-1950). Both biomarkers were assayed using commercially available assay kits. Kits for NT proBNP and TnI were purchased from ALPCO Diagnostics, Salem, N.H. Using standard curves and software, the concentration of each biomarker was expressed as ng/ml for TnI and fmol/ml for NT-proBNP.

[2] = system: dogs with advanced heart failure; test: Dose escalation / bolus plus infusion study, hemodynamic and ventriculographic measures; assay type: in vivo, dog; details: for Cardiac output (CO) / Heart rate (HR) / LV end-diastolic pressure (LVEDP) / LV end-diastolic volume (EDV) / LV end-systolic volume (ESV) / Mean aortic pressure (mAoP) / Stroke volume (SV) / Systemic vascular resistance (SVR): 1 h
Description: Studies were performed in purpose-bred, healthy and conditioned mongrel dogs weighing between 20 and 30 kg. The study was approved by Henry Ford Health System Institutional Animal Care and Use Committee and conformed to the National Institute of Health “Guide and Care for Use of Laboratory Animals” and the “Position of the American Heart Association on Research Animal Use” (Position of the American Heart Association on Research Animal Use. Circulation 1985; 71; 49A-50A).
Chronic LV dysfunction and failure was produced by multiple sequential intracoronary embolizations with polystyrene Latex; coronary microembolizations were performed during cardiac catheterization under general anesthesia and sterile conditions (Sabbah H N, et al. Am J Physiol (1991) 260:H1379-84; Sabbah H N, et al. Circulation (1994) 89:2852-9; Sabbah H N, et al. Am J Cardiol 99:41 A-46A, (2007)). Anesthesia was induced using a combination of intravenous injections of oxymorphone hydrochloride (0.22 mg/kg) and diazepam (0.2-0.6 mg/kg). Plane of anesthesia was maintained throughout the study using 1% to 2% isoflurane. Left and right heart catheterizations were performed via a femoral arteriotomy and venotomy. Coronary microembolizations were discontinued when LV ejection fraction, determined angiographically, was about 25%. A period of 2 weeks was allowed after the last microembolization to ensure that infarctions produced by the last microembolizations have completely healed and heart failure was established before the study is undertaken.
as §1
Active drug was used in dog groups as follows:
1. In 3 of 8 dogs, escalating doses of 30, 100 and 300 μg/kg/min GP-531 tartrate were used (Group I)
2. In another 3 of 8 dogs, escalating doses of 3, 10 and 30 μg/kg/min GP-531 tartrate were used (Group II).
3. In 1 of 8 dogs, active drug was administered as 700 μg/kg GP-531 tartrate bolus followed by a constant infusion of 10 μg/kg/min GP-531 tartrate for 3 hours.
4. In another 1 of 8 dogs, two active drug studies were performed. In one study, active drug was administered as 70 μg/kg bolus followed by a constant infusion of 1.0 μg/kg/min for 4 hours and in the second study, active drug was administered as 210 μg/kg bolus followed by a constant infusion of 3.0 μg/kg/min for 4 hours.
Study Primary End-Points were: (1) change in LV ejection fraction determined from ventriculography and (2) change in LV end-systolic and end-diastolic volume determined from ventriculography.
All hemodynamic measurements were made during left and right heart catheterizations in anesthetized dogs at each specified study time point. […]

[3] = Group I HF dogs n=3, iv 30 μg/kg/min
[4] = Group I HF dogs n=3, iv 100 μg/kg/min
[5] = Group I HF dogs n=3, iv 300 μg/kg/min
[6] = Group II HF dogs n=3, iv 3 μg/kg/min
[7] = Group II HF dogs n=3, iv 10 μg/kg/min
[8] = Group II HF dogs n=3, iv 30 μg/kg/min

Structure (SMILES): NC(=O)c1ncn(C2OC(CNCc3ccccc3)C(O)C2O)c1N [GP-531, 5-amino-1-β-D-(5-benzylamino-5-deoxy-1-β-D-ribofuranosyl)imidazole-4 carboxamide]
- Plasma NT-ProBNP ([1]; Group I HF dogs n=3, 1 h washout after 30/100/300 μg/kg/min): 204 ± 5 fmol/mL
- Plasma NT-ProBNP ([1]; Group I HF dogs n=3, iv 30 μg/kg/min, 1 h): 128 ± 23 fmol/mL
- Plasma NT-ProBNP ([1]; Group I HF dogs n=3, iv 100 μg/kg/min, 1 h): 131 ± 8 fmol/mL
- Plasma NT-ProBNP ([1]; Group I HF dogs n=3, iv 300 μg/kg/min, 1 h): 121 ± 13 fmol/mL
- Plasma NT-ProBNP ([1]; Group II HF dogs n=3, 1 h washout after 3/10/30 μg/kg/min): 179 ± 6 fmol/mL
- Plasma NT-ProBNP ([1]; Group II HF dogs n=3, iv 3 μg/kg/min, 1 h): 225 ± 34 fmol/mL
- Plasma NT-ProBNP ([1]; Group II HF dogs n=3, iv 10 μg/kg/min, 1 h): 155 ± 1 fmol/mL
- Plasma NT-ProBNP ([1]; Group II HF dogs n=3, iv 30 μg/kg/min, 1 h): 123 ± 21 fmol/mL
- Effect on hemodynamic or ventriculographic measures of LV function ([2]; 1 HF dog, 70 μg/kg bolus then 1.0 μg/kg/min for 4 h): no effects
- Cardiac output (CO) [2, 3]: 1.90 ± 0.19 L/min
- Heart rate (HR) [2, 3]: 88 ± 9 beats/min
- LV end-diastolic pressure (LVEDP) [2, 3]: 11 ± 1 mmHg
- LV end-diastolic volume (EDV) [2, 3]: 69 ± 6 mL
- LV end-systolic volume (ESV) [2, 3]: 47 ± 4 mL
- Mean aortic pressure (mAoP) [2, 3]: 70 ± 2 mmHg
- Stroke volume (SV) [2, 3]: 22 ± 2 mL
- Systemic vascular resistance (SVR) [2, 3]: 2995 ± 213 dynes-sec-cm^−5
- Cardiac output (CO) [2, 4]: 2.06 ± 0.28 L/min
- Heart rate (HR) [2, 4]: 90 ± 9 beats/min
- LV end-diastolic pressure (LVEDP) [2, 4]: 10 ± 1 mmHg
- LV end-diastolic volume (EDV) [2, 4]: 68 ± 4 mL
- LV end-systolic volume (ESV) [2, 4]: 45 ± 4 mL
- Mean aortic pressure (mAoP) [2, 4]: 69 ± 2 mmHg
- Stroke volume (SV) [2, 4]: 23 ± 1 mL
- Systemic vascular resistance (SVR) [2, 4]: 2792 ± 360 dynes-sec-cm^−5
- Cardiac output (CO) [2, 5]: 2.06 ± 0.22 L/min
- Heart rate (HR) [2, 5]: 88 ± 6 beats/min
- LV end-diastolic pressure (LVEDP) [2, 5]: 11 ± 1 mmHg
- LV end-diastolic volume (EDV) [2, 5]: 68 ± 4 mL
- LV end-systolic volume (ESV) [2, 5]: 44 ± 4 mL
- Mean aortic pressure (mAoP) [2, 5]: 73 ± 3 mmHg
- Stroke volume (SV) [2, 5]: 23 ± 1 mL
- Systemic vascular resistance (SVR) [2, 5]: 2886 ± 67 dynes-sec-cm^−5
- Cardiac output (CO) [2, 6]: 1.47 ± 0.09 L/min
- Heart rate (HR) [2, 6]: 80 ± 2 beats/min
- LV end-diastolic pressure (LVEDP) [2, 6]: 12 ± 1 mmHg
- LV end-diastolic volume (EDV) [2, 6]: 62 ± 2 mL
- LV end-systolic volume (ESV) [2, 6]: 43 ± 2 mL
- Mean aortic pressure (mAoP) [2, 6]: 70 ± 3 mmHg
- Stroke volume (SV) [2, 6]: 18 ± 1 mL
- Systemic vascular resistance (SVR) [2, 6]: 3870 ± 366 dynes-sec-cm^−5
- Cardiac output (CO) [2, 7]: 1.45 ± 0.06 L/min
- Heart rate (HR) [2, 7]: 82 ± 6 beats/min
- LV end-diastolic pressure (LVEDP) [2, 7]: 12 ± 1 mmHg
- LV end-diastolic volume (EDV) [2, 7]: 58 ± 4 mL
- LV end-systolic volume (ESV) [2, 7]: 39 ± 3 mL
- Mean aortic pressure (mAoP) [2, 7]: 65 ± 2 mmHg
- Stroke volume (SV) [2, 7]: 19 ± 1 mL
- Systemic vascular resistance (SVR) [2, 7]: 3379 ± 26 dynes-sec-cm^−5
- Cardiac output (CO) [2, 8]: 1.64 ± 0.06 L/min
- Heart rate (HR) [2, 8]: 80 ± 3 beats/min
- LV end-diastolic pressure (LVEDP) [2, 8]: 12 ± 2 mmHg
- LV end-diastolic volume (EDV) [2, 8]: 57 ± 4 mL
- LV end-systolic volume (ESV) [2, 8]: 36 ± 3 mL
- Mean aortic pressure (mAoP) [2, 8]: 69 ± 3 mmHg
- Stroke volume (SV) [2, 8]: 21 ± 2 mL
- Systemic vascular resistance (SVR) [2, 8]: 3388 ± 235 dynes-sec-cm^−5
- De-novo ventricular arrhythmias ([2]; HF dogs, iv 3 to 300 μg/kg/min): without triggering de-novo ventricular arrhythmias
- Hypotension ([2]; HF dogs, iv 3 to 300 μg/kg/min): without inducing hypotension
